The source made the active and inactive calls.
Experiments:
[1] = molecular target: Serine/threonine-protein kinase PLK4 (Homo sapiens, UniProt O00444); format: functional;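 also: PLK4 measured as one member of a kinome-wide kinase profiling panel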
[2] = molecular target: Mast/stem cell growth factor receptor Kit (Homo sapiens, UniProt P10721); format: functional;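 also: KIT entry within a kinase panel assay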
[3] = molecular target: Serine/threonine-protein kinase Nek2 (Homo sapiens, UniProt P51955); format: functional
Serine/threonine-protein kinase Nek2, sequence (P51955 whole entry): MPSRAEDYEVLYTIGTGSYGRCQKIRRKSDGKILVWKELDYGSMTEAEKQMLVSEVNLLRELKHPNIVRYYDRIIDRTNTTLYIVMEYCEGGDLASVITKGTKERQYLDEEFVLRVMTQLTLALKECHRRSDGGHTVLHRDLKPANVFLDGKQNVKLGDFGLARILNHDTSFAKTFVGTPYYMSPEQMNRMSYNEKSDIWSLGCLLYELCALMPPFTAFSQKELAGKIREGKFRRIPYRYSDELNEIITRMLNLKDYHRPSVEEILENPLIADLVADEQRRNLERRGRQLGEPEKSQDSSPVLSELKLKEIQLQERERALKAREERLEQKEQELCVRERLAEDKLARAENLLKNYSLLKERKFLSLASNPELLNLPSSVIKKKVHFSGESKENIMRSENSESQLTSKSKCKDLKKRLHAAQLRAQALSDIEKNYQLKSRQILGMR

[4] = molecular target: Serine/threonine-protein kinase PAK 1 (Homo sapiens, UniProt Q13153); format: functional
[5] = molecular target: ALK tyrosine kinase receptor (Homo sapiens, UniProt Q9UM73); format: functional;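 also: ALK tested as one member of a kinase panel screen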
[6] = molecular target: Protein kinase C gamma type (Homo sapiens, UniProt P05129); format: functional
LIM domain kinase 1 = LIM domain kinase 1 (Homo sapiens, UniProt P53667); experiment: Navigating the Kinome. Panel member name: LIMK1; format: functional
LIM domain kinase 1, sequence (P53667 whole entry, the tested form may be a part): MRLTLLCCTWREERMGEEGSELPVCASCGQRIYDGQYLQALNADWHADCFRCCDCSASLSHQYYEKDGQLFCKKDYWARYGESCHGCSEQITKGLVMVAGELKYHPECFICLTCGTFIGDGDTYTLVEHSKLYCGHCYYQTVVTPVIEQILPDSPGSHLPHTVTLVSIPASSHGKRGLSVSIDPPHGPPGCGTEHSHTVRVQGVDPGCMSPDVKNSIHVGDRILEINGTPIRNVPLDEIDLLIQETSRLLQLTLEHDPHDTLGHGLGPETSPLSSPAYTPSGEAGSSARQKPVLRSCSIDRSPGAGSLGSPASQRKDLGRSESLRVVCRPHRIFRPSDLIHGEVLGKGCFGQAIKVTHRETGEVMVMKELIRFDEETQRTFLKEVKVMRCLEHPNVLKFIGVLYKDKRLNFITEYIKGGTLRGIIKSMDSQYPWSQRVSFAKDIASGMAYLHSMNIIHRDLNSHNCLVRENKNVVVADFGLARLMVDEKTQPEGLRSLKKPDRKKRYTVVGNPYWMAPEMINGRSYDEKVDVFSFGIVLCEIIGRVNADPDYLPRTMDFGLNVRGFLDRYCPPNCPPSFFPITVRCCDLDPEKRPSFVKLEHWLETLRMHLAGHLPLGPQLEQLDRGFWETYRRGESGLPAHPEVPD

[7] = molecular target: Glycogen synthase kinase-3 alpha (Homo sapiens, UniProt P49840); format: functional;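 also: GSK3A result taken from a broad kinome-wide kinase panel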
[8] = molecular target: Platelet-derived growth factor receptor alpha (Homo sapiens, UniProt P16234); experiment: Navigating the Kinome. Panel member name: PDGFRA; format: functional
Platelet-derived growth factor receptor alpha, sequence (P16234 whole entry): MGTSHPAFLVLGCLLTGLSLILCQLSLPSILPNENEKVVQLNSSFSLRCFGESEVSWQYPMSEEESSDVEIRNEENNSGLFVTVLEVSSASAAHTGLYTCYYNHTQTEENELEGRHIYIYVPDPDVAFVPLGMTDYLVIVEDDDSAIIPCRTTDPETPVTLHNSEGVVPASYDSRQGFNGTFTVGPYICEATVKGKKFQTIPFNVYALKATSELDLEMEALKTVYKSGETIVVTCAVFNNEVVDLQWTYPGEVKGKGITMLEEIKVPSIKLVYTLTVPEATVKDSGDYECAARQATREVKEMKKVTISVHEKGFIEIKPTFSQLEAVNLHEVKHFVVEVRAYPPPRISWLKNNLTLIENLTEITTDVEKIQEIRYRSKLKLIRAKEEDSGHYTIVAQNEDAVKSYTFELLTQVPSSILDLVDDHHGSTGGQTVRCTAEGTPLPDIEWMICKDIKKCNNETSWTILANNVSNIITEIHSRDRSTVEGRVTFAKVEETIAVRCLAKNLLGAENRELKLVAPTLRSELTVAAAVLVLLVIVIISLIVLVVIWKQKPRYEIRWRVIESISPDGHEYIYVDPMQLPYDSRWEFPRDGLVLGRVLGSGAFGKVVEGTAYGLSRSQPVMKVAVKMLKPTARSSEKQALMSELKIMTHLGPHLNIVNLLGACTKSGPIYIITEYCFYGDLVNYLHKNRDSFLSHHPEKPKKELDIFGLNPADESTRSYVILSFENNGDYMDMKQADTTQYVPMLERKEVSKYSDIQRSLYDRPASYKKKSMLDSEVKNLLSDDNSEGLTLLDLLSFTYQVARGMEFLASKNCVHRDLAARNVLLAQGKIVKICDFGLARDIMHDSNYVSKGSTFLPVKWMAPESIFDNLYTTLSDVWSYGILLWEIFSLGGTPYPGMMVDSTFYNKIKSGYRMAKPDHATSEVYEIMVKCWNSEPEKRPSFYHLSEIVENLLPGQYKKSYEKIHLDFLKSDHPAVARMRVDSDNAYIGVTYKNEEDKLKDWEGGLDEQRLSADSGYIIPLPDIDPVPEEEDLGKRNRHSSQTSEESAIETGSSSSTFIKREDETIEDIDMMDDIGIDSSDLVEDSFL

[9] = molecular target: Tyrosine-protein kinase receptor UFO (Homo sapiens, UniProt P30530); format: functional
[10] = molecular target: Serine/threonine-protein kinase Chk2 (Homo sapiens, UniProt O96017); format: functional;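 also: CHEK2 entry within a kinome-wide screening panel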
[11] = molecular target: Receptor-type tyrosine-protein kinase FLT3 (Homo sapiens, UniProt P36888); format: functional;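 also: FLT3 was tested as one member of a kinome-wide kinase panel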
[12] = molecular target: Serine/threonine-protein kinase PLK3 (Homo sapiens, UniProt Q9H4B4); format: functional
Aurora kinase B = Aurora kinase B (Homo sapiens, UniProt Q96GD4); format: functional
Aurora kinase B, sequence (Q96GD4 whole entry): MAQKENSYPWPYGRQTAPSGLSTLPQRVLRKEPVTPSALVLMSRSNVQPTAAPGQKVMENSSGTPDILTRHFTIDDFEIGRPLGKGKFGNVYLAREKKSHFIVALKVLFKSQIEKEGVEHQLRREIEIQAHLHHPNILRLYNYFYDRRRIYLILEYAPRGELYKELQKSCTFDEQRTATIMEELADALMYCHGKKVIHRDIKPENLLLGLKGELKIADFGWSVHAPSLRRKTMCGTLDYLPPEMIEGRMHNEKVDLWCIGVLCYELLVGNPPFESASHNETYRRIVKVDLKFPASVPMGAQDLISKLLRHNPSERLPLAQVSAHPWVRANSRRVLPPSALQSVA

[13] = molecular target: MAP kinase-activated protein kinase 2 (Homo sapiens, UniProt P49137); format: functional;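 also: measured as one member of a kinome-wide kinase panel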
[14] = molecular target: Serine/threonine-protein phosphatase (Homo sapiens, UniProt Q9BPW0); experiment: inhibition of protein phosphatase 5 activity – biochemical, fluorescence, dose response (AID 2395)
[15] = molecular target: T1, Apoptotic protease-activating factor 1 (Homo sapiens, UniProt O14727); format: functional
T1 sequence (O14727 whole entry): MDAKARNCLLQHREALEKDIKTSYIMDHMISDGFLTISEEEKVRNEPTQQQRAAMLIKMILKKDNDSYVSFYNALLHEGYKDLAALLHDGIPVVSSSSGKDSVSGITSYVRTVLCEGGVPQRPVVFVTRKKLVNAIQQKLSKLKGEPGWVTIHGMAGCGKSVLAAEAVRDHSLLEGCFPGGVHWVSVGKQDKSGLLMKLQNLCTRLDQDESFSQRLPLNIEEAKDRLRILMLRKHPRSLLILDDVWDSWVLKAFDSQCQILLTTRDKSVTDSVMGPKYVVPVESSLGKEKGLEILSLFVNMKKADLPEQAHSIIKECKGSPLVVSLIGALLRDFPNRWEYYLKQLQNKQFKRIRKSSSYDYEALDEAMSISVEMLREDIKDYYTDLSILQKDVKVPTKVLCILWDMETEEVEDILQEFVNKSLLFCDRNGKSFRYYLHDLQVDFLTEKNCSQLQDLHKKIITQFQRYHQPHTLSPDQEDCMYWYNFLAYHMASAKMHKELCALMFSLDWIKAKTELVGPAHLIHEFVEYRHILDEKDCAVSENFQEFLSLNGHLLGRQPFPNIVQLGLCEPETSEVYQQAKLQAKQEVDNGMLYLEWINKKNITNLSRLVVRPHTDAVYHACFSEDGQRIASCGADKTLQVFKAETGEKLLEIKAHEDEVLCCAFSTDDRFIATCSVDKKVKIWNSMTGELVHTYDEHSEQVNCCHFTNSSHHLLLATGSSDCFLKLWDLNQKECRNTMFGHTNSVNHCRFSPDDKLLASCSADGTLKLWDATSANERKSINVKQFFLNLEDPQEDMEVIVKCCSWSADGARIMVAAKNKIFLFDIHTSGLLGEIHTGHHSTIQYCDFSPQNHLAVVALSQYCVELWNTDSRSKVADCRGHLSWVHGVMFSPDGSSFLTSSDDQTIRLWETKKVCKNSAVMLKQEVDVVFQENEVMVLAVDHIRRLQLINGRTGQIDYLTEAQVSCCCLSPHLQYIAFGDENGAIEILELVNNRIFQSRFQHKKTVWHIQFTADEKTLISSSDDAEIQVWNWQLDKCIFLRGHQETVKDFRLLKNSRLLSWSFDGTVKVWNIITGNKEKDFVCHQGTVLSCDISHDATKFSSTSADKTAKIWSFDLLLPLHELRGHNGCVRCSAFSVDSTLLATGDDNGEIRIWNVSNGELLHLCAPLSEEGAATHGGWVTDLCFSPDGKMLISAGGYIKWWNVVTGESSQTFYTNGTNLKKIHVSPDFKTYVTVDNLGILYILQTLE

[16] = molecular target: Serine/threonine-protein phosphatase PP1-alpha catalytic subunit (Homo sapiens, UniProt P62136); experiment: inhibition of protein phosphatase 1 activity – biochemical, fluorescence, dose response (AID 2394)
Serine/threonine-protein phosphatase PP1-alpha catalytic subunit, sequence (P62136 whole entry): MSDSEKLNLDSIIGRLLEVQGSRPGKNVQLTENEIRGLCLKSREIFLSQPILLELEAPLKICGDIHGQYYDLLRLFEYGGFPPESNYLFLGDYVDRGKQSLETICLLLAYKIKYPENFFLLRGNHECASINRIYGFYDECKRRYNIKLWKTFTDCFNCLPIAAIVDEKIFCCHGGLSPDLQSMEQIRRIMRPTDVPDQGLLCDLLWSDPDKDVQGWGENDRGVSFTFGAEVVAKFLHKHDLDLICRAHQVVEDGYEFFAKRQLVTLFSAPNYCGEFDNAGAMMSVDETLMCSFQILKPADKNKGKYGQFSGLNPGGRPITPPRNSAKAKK

SUMO-activating enzyme = SUMO-activating enzyme (Homo sapiens, UniProt Q9UBT2); experiment: blockers of SAE1/SAE2–UBC9 SUMO transfer – biochemical, HTRF, uHTS, primary screen (AID 2006); format: protein-complex assay
SUMO-activating enzyme, sequence (Q9UBE0 whole entry): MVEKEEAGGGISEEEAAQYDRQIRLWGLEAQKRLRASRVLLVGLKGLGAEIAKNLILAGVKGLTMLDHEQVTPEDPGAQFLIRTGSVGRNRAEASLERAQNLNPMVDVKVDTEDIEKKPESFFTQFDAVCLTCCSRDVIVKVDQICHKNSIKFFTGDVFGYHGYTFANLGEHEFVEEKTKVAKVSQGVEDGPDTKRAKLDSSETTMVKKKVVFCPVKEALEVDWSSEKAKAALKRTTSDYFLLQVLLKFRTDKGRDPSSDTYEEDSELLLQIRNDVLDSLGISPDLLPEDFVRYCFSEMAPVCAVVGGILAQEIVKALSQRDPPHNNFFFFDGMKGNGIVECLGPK
SUMO-activating enzyme, sequence (Q9UBT2 whole entry): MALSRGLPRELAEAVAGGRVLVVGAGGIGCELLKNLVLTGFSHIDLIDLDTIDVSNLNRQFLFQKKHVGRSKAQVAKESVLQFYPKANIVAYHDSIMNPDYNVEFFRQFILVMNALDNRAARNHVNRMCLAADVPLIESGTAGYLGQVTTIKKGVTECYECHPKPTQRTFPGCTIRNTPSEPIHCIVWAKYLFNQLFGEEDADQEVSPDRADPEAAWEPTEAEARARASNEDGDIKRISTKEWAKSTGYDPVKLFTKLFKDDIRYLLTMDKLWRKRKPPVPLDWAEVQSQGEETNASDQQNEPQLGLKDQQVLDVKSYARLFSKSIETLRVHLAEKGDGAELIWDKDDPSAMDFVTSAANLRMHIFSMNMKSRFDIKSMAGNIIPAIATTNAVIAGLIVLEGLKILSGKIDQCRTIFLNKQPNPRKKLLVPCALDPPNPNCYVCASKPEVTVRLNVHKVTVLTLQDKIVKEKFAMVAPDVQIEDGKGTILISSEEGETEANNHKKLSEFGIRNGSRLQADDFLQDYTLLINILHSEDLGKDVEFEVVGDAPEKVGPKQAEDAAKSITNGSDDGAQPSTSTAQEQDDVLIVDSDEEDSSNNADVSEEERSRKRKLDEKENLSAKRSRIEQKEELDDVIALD

Mast/stem cell growth factor receptor Kit, sequence (P10721 whole entry): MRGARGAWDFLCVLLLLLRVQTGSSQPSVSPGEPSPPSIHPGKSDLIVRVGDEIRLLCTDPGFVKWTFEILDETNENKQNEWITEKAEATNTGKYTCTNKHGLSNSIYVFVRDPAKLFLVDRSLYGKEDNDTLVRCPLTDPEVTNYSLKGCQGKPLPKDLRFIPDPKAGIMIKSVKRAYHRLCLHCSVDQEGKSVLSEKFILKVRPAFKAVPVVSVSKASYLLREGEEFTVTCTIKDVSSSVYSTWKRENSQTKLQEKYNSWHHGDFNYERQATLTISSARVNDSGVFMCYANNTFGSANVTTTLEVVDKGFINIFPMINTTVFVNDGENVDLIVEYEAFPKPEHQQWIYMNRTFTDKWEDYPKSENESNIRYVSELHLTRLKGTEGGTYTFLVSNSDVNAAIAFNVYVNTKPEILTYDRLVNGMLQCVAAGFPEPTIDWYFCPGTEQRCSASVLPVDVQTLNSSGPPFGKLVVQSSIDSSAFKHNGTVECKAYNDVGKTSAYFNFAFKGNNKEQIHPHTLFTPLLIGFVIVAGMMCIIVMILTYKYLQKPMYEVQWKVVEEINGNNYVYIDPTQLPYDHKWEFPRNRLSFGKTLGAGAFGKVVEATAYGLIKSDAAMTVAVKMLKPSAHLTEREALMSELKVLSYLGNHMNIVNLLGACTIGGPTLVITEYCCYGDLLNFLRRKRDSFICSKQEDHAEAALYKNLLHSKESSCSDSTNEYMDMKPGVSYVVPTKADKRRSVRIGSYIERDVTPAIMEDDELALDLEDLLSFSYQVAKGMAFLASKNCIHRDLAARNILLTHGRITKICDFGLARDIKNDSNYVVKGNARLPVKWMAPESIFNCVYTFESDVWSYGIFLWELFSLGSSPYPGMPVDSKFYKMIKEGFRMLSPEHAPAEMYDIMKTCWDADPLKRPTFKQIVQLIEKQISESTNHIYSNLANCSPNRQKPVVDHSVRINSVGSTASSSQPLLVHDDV

Ki [1] | Ki [2] | Ki [3] | Ki [4] | Ki [5] | Ki [6] | Ki (LIM domain kinase 1) | Ki [7] | Ki [8] | Ki [9] | Ki [10] | Ki [11] | Ki [12] | Ki (Aurora kinase B) | Ki [13] | SMILES | IC50 [14] | IC50 [15] | IC50 [16] | IC50 (SUMO-activating enzyme)
1.58 µM (active) | > 1.26 µM (inactive) | > 10 µM (inactive) | > 10 µM (inactive) | 2 µM (active) | 2.51 µM (active) | 1 µM (active) | > 6.31 µM (inactive) | > 2.51 µM (inactive) | > 2 µM (inactive) | > 1.58 µM (inactive) | > 3.16 µM (inactive) | > 7.94 µM (inactive) | 1 µM (active) | > 7.94 µM (inactive) | CC(N)C1CCC(C(=O)Nc2ccnc3[nH]ccc23)CC1 (centres undefined) |  |  |  | 
 |  |  |  |  |  |  |  |  |  |  |  |  |  |  | COc1cc(Br)c(C(=O)c2nccc3cc(OC)c(OC)cc23)cc1OC | 5.92 µM (active) | 7.37 µM (active) | 52.1 µM (not active) | 12.8 µM (active)
